Source: patent publication US12077503B2, “Substituted cyclic amides and their use as herbicides” (FMC CORPORATION, priority 2015, dated 2024)

How the values were obtained:
Assay type in all cases: in vivo
Kochia (Kochia scoparia) [1] = experiment: Test A preemergence; conditions: Bassia scoparia, pre-emergence, 240 h
In short: (§1)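 Seeds sprayed preemergence with a directed soil spray, or plants at 2 to 10 cm height and one- to two-leaf stage sprayed postemergence, with test chemicals in a non-phytotoxic solvent mixture containing surfactant, in loam soil–sand blend. Injury rated visually against untreated controls after about 10 d in greenhouse, 0 (no effect) to 100 (complete control).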

[2] = system: barnyardgrass (Echinochloa crus-galli); experiment: Test A preemergence; conditions: Echinochloa crus-galli, pre-emergence, 240 h
In short: as §1

[3] = system: giant foxtail (Setaria faberii); experiment: Test A preemergence; conditions: Setaria faberi, pre-emergence, 240 h
In short: as §1

[4] = system: pigweed (Amaranthus retroflexus); experiment: Test A preemergence; conditions: Amaranthus retroflexus, pre-emergence, 240 h
[5] = system: ragweed (common ragweed, Ambrosia elatior); experiment: Test A preemergence; conditions: Ambrosia artemisiifolia, pre-emergence, 240 h
In short: as §1

[6] = system: ryegrass, Italian (Italian ryegrass, Lolium multiflorum); experiment: Test A preemergence; conditions: Lolium multiflorum, pre-emergence, 240 h
In short: as §1

[7] = system: Galium (catchweed bedstraw, Galium aparine); experiment: Test A postemergence; conditions: Galium, post-emergence, 240 h, 125 g ai/ha, Postemergence; visual injury after approximately 10 d; 0 to 100 scale where 0 is no effect and 100 is complete control; read-out: Plant response rating, Galium
In short: as §1

Kochia (Kochia scoparia) [8] = experiment: Test A postemergence; conditions: Bassia scoparia, post-emergence, 240 h, 125 g ai/ha, Postemergence; visual injury after approximately 10 d; 0 to 100 scale where 0 is no effect and 100 is complete control; read-out: Plant response rating, Kochia
In short: as §1

[9] = system: barnyardgrass (Echinochloa crus-galli); experiment: Test A postemergence; conditions: Echinochloa crus-galli, post-emergence, 240 h, 125 g ai/ha, Postemergence; visual injury after approximately 10 d; 0 to 100 scale where 0 is no effect and 100 is complete control; read-out: Plant response rating, Barnyardgrass
In short: as §1

[10] = system: blackgrass (Alopecurus myosuroides); experiment: Test A postemergence; conditions: Alopecurus myosuroides, post-emergence, 240 h, 125 g ai/ha, Postemergence; visual injury after approximately 10 d; 0 to 100 scale where 0 is no effect and 100 is complete control; read-out: Plant response rating, Blackgrass
In short: as §1

corn (Zea mays) = experiment: Test A postemergence; conditions: Zea mays, post-emergence, 240 h, 125 g ai/ha, Postemergence; visual injury after approximately 10 d; 0 to 100 scale where 0 is no effect and 100 is complete control
In short: as §1

[11] = system: giant foxtail (Setaria faberii); experiment: Test A postemergence; conditions: Setaria faberi, post-emergence, 240 h, 125 g ai/ha, Postemergence; visual injury after approximately 10 d; 0 to 100 scale where 0 is no effect and 100 is complete control; read-out: Plant response rating, Foxtail, Giant
In short: as §1

[12] = system: pigweed (Amaranthus retroflexus); experiment: Test A postemergence; conditions: Amaranthus retroflexus, post-emergence, 240 h, 125 g ai/ha, Postemergence; visual injury after approximately 10 d; 0 to 100 scale where 0 is no effect and 100 is complete control; read-out: Plant response rating, Pigweed
In short: as §1

[13] = system: ragweed (common ragweed, Ambrosia elatior); experiment: Test A postemergence; conditions: Ambrosia artemisiifolia, post-emergence, 240 h, 125 g ai/ha, Postemergence; visual injury after approximately 10 d; 0 to 100 scale where 0 is no effect and 100 is complete control; read-out: Plant response rating, Ragweed
In short: as §1

[14] = system: ryegrass, Italian (Italian ryegrass, Lolium multiflorum); experiment: Test A postemergence; conditions: Lolium multiflorum, post-emergence, 240 h, 125 g ai/ha, Postemergence; visual injury after approximately 10 d; 0 to 100 scale where 0 is no effect and 100 is complete control; read-out: Plant response rating, Ryegrass, Italian
In short: as §1

[15] = system: wheat (Triticum aestivum); experiment: Test A postemergence; conditions: Triticum aestivum, post-emergence, 240 h, 125 g ai/ha, Postemergence; visual injury after approximately 10 d; 0 to 100 scale where 0 is no effect and 100 is complete control; read-out: Plant response rating, Wheat
In short: as §1

[16] = system: barnyardgrass (Echinochloa crus-galli); experiment: Test B flooded paddy test; conditions: Echinochloa crus-galli, Flood, 250 g ai/ha; scale of 0 to 100 where 0 is no effect and 100 is complete control; read-out: Barnyardgrass plant response rating
In short: (§2)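 Flooding to 3 cm over soil accompanied treatment, which consisted of adding compound to the standing water around 2-leaf plants; depth was then maintained. Visual assessment versus controls followed at 13 to 15 d (scale 0–100, 0 meaning no effect).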

[17] = system: ducksalad (Heteranthera limosa); experiment: Test B flooded paddy test; conditions: Heteranthera limosa, Flood, 250 g ai/ha; scale of 0 to 100 where 0 is no effect and 100 is complete control; read-out: Ducksalad plant response rating
In short: as §2

rice (Oryra sativa) = experiment: Test B flooded paddy test; conditions: Oryza sativa, Flood, 250 g ai/ha; scale of 0 to 100 where 0 is no effect and 100 is complete control; read-out: Rice plant response rating
In short: as §2

[18] = system: sedge, umbrella (small-flower umbrella sedge, Cyperus difformis); experiment: Test B flooded paddy test; conditions: Cyperus difformis, 250 g ai/ha, Flood; 0 to 100 scale where 0 is no effect and 100 is complete control; read-out: Sedge, Umbrella plant response rating
In short: as §2

## CSc1ccccc1NC(=O)[C@H]1C(=O)N(C)C[C@@H]1c1ccc(F)c(Br)c1 [Compound 990]
Kochia (Kochia scoparia) [1]; 125 g ai/ha, Preemergence, visual injury rating after approximately 10 d, read-out: Kochia plant response rating (0 to 100 scale, 0 is no effect, 100 is complete control)
  pest or weed control at 125 g/ha: 70%
Kochia (Kochia scoparia) [1]; 500 g ai/ha, preemergence, visual injury rating about 10 d after treatment, 0 to 100 scale (0 no effect, 100 complete control), read-out: Kochia plant response rating
  pest or weed control at 500 g/ha: 90%
[2]; 125 g ai/ha, Preemergence, visual injury rating after approximately 10 d, read-out: Barnyardgrass plant response rating (0 to 100 scale, 0 is no effect, 100 is complete control)
  pest or weed control at 125 g/ha: 100%
[2]; 500 g ai/ha, preemergence, visual injury rating about 10 d after treatment, 0 to 100 scale (0 no effect, 100 complete control), read-out: Barnyardgrass plant response rating
  pest or weed control at 500 g/ha: 100%
[3]; 125 g ai/ha, Preemergence, visual injury rating after approximately 10 d, read-out: Foxtail, Giant plant response rating (0 to 100 scale, 0 is no effect, 100 is complete control)
  pest or weed control at 125 g/ha: 100%
[3]; 500 g ai/ha, preemergence, visual injury rating about 10 d after treatment, 0 to 100 scale (0 no effect, 100 complete control), read-out: Foxtail, Giant plant response rating
  pest or weed control at 500 g/ha: 100%
[4]; 125 g ai/ha, Preemergence, visual injury rating after approximately 10 d, read-out: Pigweed plant response rating (0 to 100 scale, 0 is no effect, 100 is complete control)
  pest or weed control at 125 g/ha: 40%
[4]; 500 g ai/ha, preemergence, visual injury rating about 10 d after treatment, 0 to 100 scale (0 no effect, 100 complete control), read-out: Pigweed plant response rating
  pest or weed control at 500 g/ha: 80%
[5]; 125 g ai/ha, Preemergence, visual injury rating after approximately 10 d, read-out: Ragweed plant response rating (0 to 100 scale, 0 is no effect, 100 is complete control)
  pest or weed control at 125 g/ha: 50%
[5]; 500 g ai/ha, preemergence, visual injury rating about 10 d after treatment, 0 to 100 scale (0 no effect, 100 complete control), read-out: Ragweed plant response rating
  pest or weed control at 500 g/ha: 80%
[6]; 125 g ai/ha, Preemergence, visual injury rating after approximately 10 d, read-out: Ryegrass, Italian plant response rating (0 to 100 scale, 0 is no effect, 100 is complete control)
  pest or weed control at 125 g/ha: 0%
[6]; 500 g ai/ha, preemergence, visual injury rating about 10 d after treatment, 0 to 100 scale (0 no effect, 100 complete control), read-out: Ryegrass, Italian plant response rating
  pest or weed control at 500 g/ha: 60%
[7]
  pest or weed control at 125 g/ha: 60%
Kochia (Kochia scoparia) [8]
  pest or weed control at 125 g/ha: 40%
[9]
  pest or weed control at 125 g/ha: 90%
[10]
  pest or weed control at 125 g/ha: 0%
Corn (Zea mays)
  Corn plant response rating (crop injury, 0 = no effect, 100 = complete kill) at 125 g/ha: 40%
[11]
  pest or weed control at 125 g/ha: 80%
[12]
  pest or weed control at 125 g/ha: 30%
[13]
  pest or weed control at 125 g/ha: 0%
[14]
  pest or weed control at 125 g/ha: 20%
[15]
  plant injury at 125 g/ha: 0%
[16]
  pest or weed control at 250 g/ha: 50%
[17]
  pest or weed control at 250 g/ha: 100%
Rice (Oryra sativa)
  pest or weed control at 250 g/ha: 55%
[18]
  pest or weed control at 250 g/ha: 0%
